The results in this text go back to patent publication US5583000A, “Protease-binding compounds and methods of use” (priority 1993, dated 1996).

Structures are written as SMILES. A value given as a limit tells only on which side of the number the result lay.

One may read the IC50 as the midpoint of a concentration-inhibition curve. A low value points to higher potency. For orientation: solubility means how much of the substance goes into solution per volume. A high value points to much dissolved substance.

Data set [1] addresses T1, HIV-2 protease (Human immunodeficiency virus type 2 subtype A, UniProt P04584).
T1 construct: the coding region of the 99-amino acid protease; made in house; host or cells: Saccharomyces cerevisiae strain AB110, plasmid pHIV2PR115
In words: biochemical. To be noted: 1M NaCl. As for the experimental part: The decapeptide was synthesized by conventional solid-state methods. Reactions were carried out and fractionated by HPLC. Conversion of the decapeptide to the two pentapeptides was quantitated by integration of the peak areas and comparison to product standard curves.
Enzymatic Inhibition. […] Each data point was done in triplicate and initial enzyme rates were fit to the Michaelis-Menten equation using a nonlinear regression program ("Enzfitter" from Biosoft).

Data set [2] concerns the target HIV-1 protease (Human immunodeficiency virus type 1 group M subtype B, UniProt P03369). In words: biochemical. To be noted: for IC50: HIV-1 Protease IC50 (μM) 1M NaCl.
Data set [3] in a line: physchem.
Data set [4] is described as follows: in vitro.
Method: Cytotoxicity. The MTT assay was performed as follows:
The cells were seeded in 96-well plates and grown overnight to near 50% confluency. A serial dilution (1 to 500 μM) of each compound in culture media was prepared and 250 μL/well was added in duplicate. The cells were allowed to grow for various periods of time (6, 24, 48 hours) and any precipitation of compounds in the wells was noted. The assay was performed by removing 200 μL of the culture media and adding 25 μL of MTT solution (2 mg/mL in phosphate buffered saline (PBS)). This was incubated for 4 hours at 37° C. and live cells began to turn purple while the solution remained yellow. To quench the reaction and solubilize the reaction product, 160 μL of acidified isopropanol (4 mL 1N HCl for 96 mL alcohol) were added and the resulting mixture was mixed vigorously to dissolve purple crystals. Absorbance was determined at 550-570 nm on an ELISA plate reader within 0.5-2 hours. […] To obtain the LD50 values for each compound, the concentration at which the absorbance is haft of that for the untreated cells was determined.

T1 sequence (P04584 514-612 limits assumed): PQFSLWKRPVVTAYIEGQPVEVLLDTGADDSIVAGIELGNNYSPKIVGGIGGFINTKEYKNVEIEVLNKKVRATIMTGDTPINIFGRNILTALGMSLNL

In data set [1], `OC1(c2ccc(Cl)cc2)CCN(CCCC2(c3ccc(F)cc3)SCc3ccc(cc3)CS2)CC1` [UCSF22, (1,4-benzenedimethanethioacetal)-4-[4-(p-chlorophenyl)-4-hydroxypiperidinyl]-4'-fluorobutyrophenone] gave an IC50 of 54 µM. Also, in data set [2], the “HIV-1 Protease Therapeutic Index (LD50 /IC50)” value is 5(0.5) and the IC50 was found to be 100 µM. In addition, in data set [3], the solubility is < 50 µM. Moreover, the CC50 at 6 h in data set [4] is > 500 µM.

Turning to `OC1(c2ccc(Cl)cc2)CCN(CCCC2(c3ccc(F)cc3)SCCCCS2)CC1` [UCSF23, (1,4-butanethioacetal)-4-[4-(p-chlorophenyl)-4-hydroxypiperidinyl]-4'-fluorobutyrophenone], the figures for the concentration for half-maximal inhibition (IC50) in data set [1] and in data set [2] were 71 µM and 20 µM, respectively. For the same molecule, the “HIV-1 Protease Therapeutic Index (LD50 /IC50)” value in data set [2] was found to be 1.25. Further, the solubility in data set [3] is > 250 µM. This molecule gave a CC50 at 6 h in data set [4] of 25 µM.

In turn, `OC1(c2ccccc2)CCN(CCCC2(c3ccccc3)OCCO2)CC1` [UCSF30, (1,2-ethyloxoacetal)-4-(4-phenyl-4-hydroxypiperidinyl)butyrophenone] had an IC50 in data set [1] of 500 µM. Also, in data set [2], the “HIV-1 Protease Therapeutic Index (LD50 /IC50)” value turned out to be 1 and the IC50 came out at 265 µM. In addition, the solubility in data set [3] was > 250 µM. The CC50 at 6 h in data set [4] was > 250 µM.

In the case of `O=C(CCCN1CCC(O)(c2ccccc2)CC1)c1ccc(F)cc1` [UCSF31, 4-(4-phenyl-4-hydroxypiperidinyl)-4'-fluorobutyrophenone], half-maximal inhibition in data set [1] (IC50) was put at 495 µM. Further, in data set [2], the “HIV-1 Protease Therapeutic Index (LD50 /IC50)” value was > 1.1 and the IC50 turned out to be 230 µM. In data set [3], the solubility was > 250 µM. In data set [4], the CC50 at 6 h is > 250 µM.

For `OC1(c2ccc(Cl)cc2)CCN(CCCC(O)(c2ccccc2)c2ccc(-c3ccccc3)cc2)CC1` (stereo not shown) [UCSF33, 4-[4-(p-chlorophenyl)-4-hydroxypiperidinyl)-1-phenyl-1-(p-phenylphenyl)-butan-1-ol], the IC50 in data set [1] and in data set [2] was 7 µM in each case. Also, the “HIV-1 Protease Therapeutic Index (LD50 /IC50)” value in data set [2] stood at 1.4. Further, the solubility in data set [3] is < 50 µM. This molecule gave a CC50 at 6 h in data set [4] of 10 µM.

Take `O=C(CCCN1CCC(O)(c2ccccc2)CC1)c1ccccc1` [UCSF34, 4-(4-phenyl-4-hydroxypiperidinyl)butyrophenone]: inhibition in data set [1] was half-maximal at 288 µM (IC50). Further, in data set [2], the “HIV-1 Protease Therapeutic Index (LD50 /IC50)” value is listed as > 1.25 and the IC50 turned out to be 400 µM. Besides, in data set [3], the solubility is > 500 µM. Further, the CC50 at 6 h in data set [4] is > 500 µM.

On to `O=C(CCCN1CCC(O)(c2ccc(Cl)cc2)CC1)c1ccc(-c2ccccc2)cc1` [UCSF36, 4-[4-(p-chlorophenyl)-4-hydroxypiperidinyl]-4'-phenylbutyrophenone], for which the figures for the half-maximal inhibitory concentration (IC50) in data set [1] and in data set [2] were 53 µM and 32 µM, respectively. For the same molecule, the “HIV-1 Protease Therapeutic Index (LD50 /IC50)” value in data set [2] was 1.4. In addition, the solubility in data set [3] was < 50 µM. The molecule further gave a CC50 at 6 h in data set [4] of 50 µM.

Turning to `C=C(CCCN1CCC(O)(c2ccc(Cl)cc2)CC1)c1ccc(F)cc1` [UCSF37, 1-[4-(4-chlorophenyl)-4-hydroxypiperidinyl]-4-(4-fluorophenyl)-4-pentene], the IC50 in data set [1] is 34 µM; in data set [2] it was 39 µM. In addition, in data set [2], the “HIV-1 Protease Therapeutic Index (LD50 /IC50)” value came to 1.3. In data set [3], the solubility is < 200 µM. For the same molecule, the CC50 at 6 h in data set [4] came to 50 µM.

`CSCC(O)(CCCN1CCC(O)(c2ccc(Cl)cc2)CC1)c1ccc(F)cc1` (stereo not shown) [UCSF39, 5-[4-(4-chlorophenyl)-4-hydroxypiperidinyl]-2-(4-fluorophenyl)pentan-2-ol-1-methylsulfide]: the figures for the 50% inhibitory concentration (IC50) in data set [1] and in data set [2] were 135 µM and 75 µM, respectively. Further, the “HIV-1 Protease Therapeutic Index (LD50 /IC50)” value in data set [2] is recorded as 1.2. Further, the solubility in data set [3] was > 500 µM. The molecule further yielded a CC50 at 6 h in data set [4] of 90 µM.

In the case of `C=CC(O)(CCCN1CCC(O)(c2ccc(Cl)cc2)CC1)c1ccc(F)cc1` (stereo not shown) [UCSF40, 6-[4-(4-chlorophenyl)-4-hydroxypiperidinyl]-3-(4-fluorophenyl)hex-1-en-3-ol], the IC50 in data set [1] turned out to be 200 µM; in data set [2] it was 80 µM. Besides, in data set [2], the “HIV-1 Protease Therapeutic Index (LD50 /IC50)” value amounted to 1.25. In addition, the solubility in data set [3] is < 100 µM. In data set [4], the CC50 at 6 h was 100 µM.

Take `Cc1ccc(C(=O)CC(CN2CCC(O)(c3ccc(Cl)cc3)CC2)c2ccccc2)cc1` (stereo not shown) [UCSF43, 4-[4-(p-chlorophenyl)-4-hydroxypiperidinyl]-3-phenyl-4'-methylbutyrophenone]: the concentration for half-maximal inhibition (IC50) is 27 µM in data set [1] and 50 µM in data set [2]. Moreover, the “HIV-1 Protease Therapeutic Index (LD50 /IC50)” value in data set [2] is 7(1). Moreover, in data set [3], the solubility is > 500 µM. In data set [4], this molecule gave a CC50 at 6 h of 350 µM.

`Cc1ccc(C(=O)CCC(c2ccccc2)N2CCC(O)(c3ccc(Cl)cc3)CC2)cc1` (stereo not shown) [UCSF44, 4-[4-(p-chlorophenyl)-4-hydroxypiperidinyl]-4-phenyl-4'-methylbutyrophenone]: half-maximal inhibition in data set [1] (IC50) was put at 43 µM. In data set [2], the “HIV-1 Protease Therapeutic Index (LD50 /IC50)” value is on record as 5.7(0.7) and the IC50 was found to be 35 µM. The solubility in data set [3] is < 25 µM. This molecule yielded a CC50 at 6 h in data set [4] of 200 µM.

Molecule `OC1(c2ccc(Cl)cc2)CCN(CCN(Cc2ccccc2)Cc2ccccc2)CC1` [UCSF46, 2-[4-(4-chlorophenyl)-4-hydroxypiperidinyl]-(N,N-dibenzyl)ethylamine] had a 50% inhibitory concentration (IC50) in data set [1] of 34 µM. Also, in data set [2], the “HIV-1 Protease Therapeutic Index (LD50 /IC50)” value is reported as 0.7 and the concentration for half-maximal inhibition (IC50) turned out to be 30 µM. Besides, the solubility in data set [3] is > 500 µM. In data set [4], this molecule gave a CC50 at 6 h of 20 µM.

`OC1(c2ccc(Cl)cc2)CCN(CCC[Si](c2ccccc2)(c2ccccc2)c2ccccc2)CC1` [UCSF47, (3-[4-(4-chlorophenyl)-4-hydroxypiperidinyl)-1-propyl)triphenylsilane] came in with a half-maximal inhibitory concentration (IC50) in data set [1] of 1.5 µM. In data set [2], the “HIV-1 Protease Therapeutic Index (LD50 /IC50)” value is recorded as 0.2 and the concentration for half-maximal inhibition (IC50) was 90 µM. Moreover, the solubility in data set [3] is > 500 µM. The molecule also registered a CC50 at 6 h in data set [4] of 15 µM.

The molecule `OC1(c2ccc(Cl)cc2)CCN(CCCC2(c3ccccc3)OCCO2)CC1` [UCSF49] came in with an IC50 in data set [1] of 180 µM. Further, in data set [2], the “HIV-1 Protease Therapeutic Index (LD50 /IC50)” value came out at 1.2 and the midpoint of inhibition, the IC50, lay at 100 µM. The solubility in data set [3] is < 50 µM. In addition, the CC50 at 6 h in data set [4] was determined as 120 µM.

As for `CC(CCN1CCC(O)(c2ccc(Cl)cc2)CC1)C(=O)c1ccc(F)cc1` (stereo not shown) [UCSF50], the IC50 in data set [1] was found to be 126 µM; in data set [2] it was 100 µM. Also, the solubility in data set [3] was > 500 µM. In data set [4], this molecule registered a CC50 at 6 h of 90 µM.

Regarding `O=C(CCCN1CCC(O)(c2ccc(Cl)cc2)CC1)c1ccccc1-c1ccccc1` [UCSF51, 4-(4-(p-chlorophenyl)-4-hydroxypiperidinyl)-2'-phenylbutyrophenone], the figures for the IC50 in data set [1] and in data set [2] were 68 µM and 40 µM, respectively. Besides, the solubility in data set [3] was < 250 µM. The CC50 at 6 h in data set [4] was 45 µM.

Molecule `O=C(CCCN1CCC(O)(c2ccc(Cl)cc2)CC1)c1cccc(-c2ccccc2)c1` [UCSF52, 4-(4-(p-chlorophenyl)-4-hydroxypiperidinyl)-3'-phenylbutyrophenone] registered a 50% inhibitory concentration (IC50) in data set [1] of 19 µM. Moreover, in data set [2], the “HIV-1 Protease Therapeutic Index (LD50 /IC50)” value is given as 0.5 and the IC50 came to 20 µM. Further, the solubility in data set [3] is < 250 µM. Also, the CC50 at 6 h in data set [4] came to 10 µM.
